{"source": "patent US9986723B2", "about": "“Screen and use of therapeutics for pancreatic ductal adenocarcinoma” (The Board of Regents of the University of Texas System, priority 2014, dated 2018)", "key": {"[1]": {"test_system": "C5LM2 cells", "assay": "Liver metastases after intrasplenic tumor cell injection", "format": "in vivo, mouse", "conditions": "warfarin 1 mg/L, pre or post (48 hrs) tumor cell injection", "protocol": "FIGS. 25A-I. Axl inhibition reduces colony formation and enhances chemotherapy. (FIGS. 25A-C) parental Mia PaCa-2 cells or Mia PaCa-2 cells stably transfected with shRNA targeting Axl (Mia shAxl) were grown as spheroids in matrigel for 7 days in the presence or absence of warfarin (200 ng/ml), n=4/condition. Mia PaCa-2 cell colonies form large stellate colonies characteristic of invasive tumor growth. Colonies and cognate cell projections were imaged (FIG. 25A) with a Nikon Phase contrast microscope using 40× and 200× magnification. Mean total colony number (FIG. 25B) and total colony area+/−s.d. (FIG. 25C) reflective of invasive growth were calculated using Image J image analysis. […] (FIG. 25E) liver metastases were quantified after intrasplenic injection of C5LM2 cells. […] Mice were sacrificed when control treated animals were moribund and primary and metastatic burden was determined. […]\nAnimal studies. […] Mice with established tumors, as determined by sonography were randomized to receive normal drinking water or water containing 1 mg/L (˜3.0 μM) warfarin for experiments in immunocompromised mice and 0.5 mg/L (˜1.5 μM) in experiments in immunocompetent animals with or without gemcitabine 25 mg/kg twice weekly depending on experimental design. […] Metastatic incidence was determined by visual inspection of the liver and abdominal cavity and confirmed by H&E of liver sections. […]"}, "[2]": {"test_system": "PanIN and PDA tumor growth in KIC mice", "assay": "Two week in vivo assay in Rgs16::GFP;KIC mice, Rgs16::GFP intensity at P29", "parameters": "species or system mouse", "source_text": "Fluorescent microscopy and GFP quantification. Pancreatic expression of Rgs16::GFP in GFP-PDA mice was quantified using a Zeiss Lumar microscope. Images were captured using a single-channel camera (Hamamatsu) in 1344×1024 resolution with 1 sec exposure under 48× magnification with 1×1 binning, analog gain=10, and analog offset=2 settings. Pancreatic fields representing the tumor burden (3-4 fields for P15 pups and 5 or more for pups from P23 onwards) of the pancreas were imaged covering up to 50% of the organ surface area. All images were saved in gray-scale 16-bit tiff format. Images were quantified using NIH ImageJ software with background subtraction with a radius of 50 pixels. A variable and tight threshold was set to eliminate residual background. Intensities of all particles with size ≥5 pixels were summed to obtain the total light intensity per image.\nDrug dosages. GFP-PDA mice were injected intraperitoneally with gemcitabine (Eli Lilly; Indianapolis, Ind., USA) (12.5 mg/kg/day given 3 days/week, dissolved in PBS), Abraxane (Cellgene; Summit, N.J., USA) (5 mg/kg/day given 2 days/week, diluted in 2% saline solution), BGB324 (BerGenBio, Bergen, Norway) (5 mg/kg/day given 5 days/week, dissolved in a mix of DMSO:ethanol:Kolliphor EL:water with 4:4:8:84 v/v ratio), and warfarin (0.2 mg/kg/day given 5 days/week, dissolved in PBS) according to injection schedules specified below. These doses were validated in prior mouse studies (Dineen et al., 2010; Kutluk Cenik et al., 2013; Ostapoff et al., 2013; Aguilera et al., 2014; Ostapoff et al., 2014). […] To verify tumor progression remains constant over the duration of these experiments, assays of untreated mice were interspersed with drug-treated cohorts, and warfarin-treated pups were the final cohort the inventors tested. Gemcitabine, Abraxane and warfarin were purchased from the UT Southwestern clinical pharmacy; BGB324 was a gift from BerGenBio.\nStatistical analysis of GFP expression. GFP values were converted to log10 scale prior to statistical analysis. Graphs and their statistical comparisons were done using Graphpad Prism software with unpaired and two-tailed Student's t test. Significance between groups was indicated as ns (not significant); *p<0.05; **p<0.01; ***p<0.001; ****p<0.0001. Error bars in all the graphs are standard error mean (SEM). See FIGS. 7-8 for additional statistical analysis.\nThe therapeutic screening strategy was to treat KIC pups between P15-P28 (when PanIN and PDA are in rapid expansion) with anticancer drugs, sacrifice mice at P29, and capture Rgs16::GFP intensity with a dissection fluorescence microscope. Images of the five brightest non-overlapping fields of Rgs16::GFP expression were then collected, representing the regions of greatest tumor burden (FIGS. 17A-C)."}}}
{"smiles": "CC(=O)CC(c1ccccc1)c1c(O)c2ccccc2oc1=O", "note": "(racemic) [Warfarin]", "values": [{"measurement": "liver colonization after intrasplenic injection", "setting": "[1]", "value": "inhibited liver colonization"}, {"measurement": "effect on PanIN lesions and PDA tumor growth (Rgs16::GFP expression)", "setting": "[2]; KIC mice treated P15-P28, i.p., sacrificed P29", "value": "no effect"}, {"measurement": "mice with at least one field in the lower 1% ile of all untreated fields", "setting": "[2]; P29, untreated 7%", "value": 19, "unit": "%"}, {"measurement": "mice with at least one field of Rgs16::GFP expression in pancreas greater than the upper 95% ile of all untreated fields", "setting": "[2]; P29, untreated 14%", "value": 13, "unit": "%"}]}
